From the supplement of paper PMC10307832

What was measured:
Experiment in all cases: relative viability (nuclei count vs DMSO), 5 days (fraction); higher = more cells survive
[1] = compound: CC1=C(C(=O)N2C=CSC2=N1)CCN3CCC(=C(C4=CC=CC=C4)C5=CC=C(C=C5)F)CC3 + N=C(N)NC(=N)NCCc1ccccc1 [Phenformin] (partner 250 µM)
How it was run: (§1)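 Relative viability divides the nuclei count in treated wells by that in vehicle wells. Lung cancer cell lines were seeded in 1536-well plates, dosed by pin tool the next day, and fixed and stained after 5 days in one step with final 0.05% Triton X-100, 1% formaldehyde and 1 ug/ml Hoechst. Dosing was a single drug or a fixed anchor-drug dose plus five library-drug doses (not always all listed) in √10 steps, and values are medians of duplicate plates imaged at 4×.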

[2] = compound: CC1=C(C(=O)N2C=CSC2=N1)CCN3CCC(=C(C4=CC=CC=C4)C5=CC=C(C=C5)F)CC3 + Nc1nc2[nH]cc(CCc3ccc(C(=O)N[C@@H](CCC(=O)O)C(=O)O)cc3)c2c(=O)[nH]1 [Pemetrexed] (partner 0.2 µM)
How it was run: as §1

[3] = compound: CC1=C(C(=O)N2C=CSC2=N1)CCN3CCC(=C(C4=CC=CC=C4)C5=CC=C(C=C5)F)CC3 + CC(=O)Nc1cccc(-n2c(=O)n(C3CC3)c(=O)c3c(Nc4ccc(I)cc4F)n(C)c(=O)c(C)c32)c1 [Trametinib] (partner 0.02 µM)
How it was run: as §1

[4] = compound: CC1=C(C(=O)N2C=CSC2=N1)CCN3CCC(=C(C4=CC=CC=C4)C5=CC=C(C=C5)F)CC3 + CC1(C)CCC(c2ccc(Cl)cc2)=C(CN2CCN(c3ccc(C(=O)NS(=O)(=O)c4ccc(N[C@H](CCN5CCOCC5)CSc5ccccc5)c(S(=O)(=O)C(F)(F)F)c4)cc3)CC2)C1 [Navitoclax] (partner 0.5 µM)
How it was run: as §1

Cell Line | relative viability ([1]; first compound 0.253 µM) | relative viability ([1]; first compound 0.8 µM) | relative viability ([1]; first compound 2.53 µM) | relative viability ([1]; first compound 8 µM) | relative viability ([2]; first compound 0.08 µM) | relative viability ([2]; first compound 0.253 µM) | relative viability ([2]; first compound 0.8 µM) | relative viability ([2]; first compound 2.53 µM) | relative viability ([2]; first compound 8 µM) | relative viability ([3]; first compound 0.08 µM) | relative viability ([3]; first compound 0.253 µM) | relative viability ([3]; first compound 0.8 µM) | relative viability ([3]; first compound 2.53 µM) | relative viability ([3]; first compound 8 µM) | relative viability ([4]; first compound 0.08 µM) | relative viability ([4]; first compound 0.253 µM) | relative viability ([4]; first compound 0.8 µM) | relative viability ([4]; first compound 2.53 µM) | relative viability ([4]; first compound 8 µM) | relative viability ([1]; first compound 0.08 µM)
NCI-H1792 | 0.257 | 0.211 | 0.33 | 0.254 | 0.523 | 0.543 | 0.606 | 0.626 | 0.293 | 0.205 | 0.432 | 0.378 | 0.531 | 0.166 | 0.454 | 0.518 | 0.602 | 0.481 | 0.47 | –
LXF-289 | 0.542 | 0.508 | 0.482 | 0.376 | 0.931 | 0.883 | 0.871 | 0.901 | 0.76 | 0.592 | 0.67 | 0.738 | 0.634 | 0.537 | 0.917 | 1.19 | 0.947 | 0.97 | 0.816 | 0.463
NCI-H1915 | 0.377 | 0.365 | 0.363 | 0.317 | 0.576 | 0.44 | 0.493 | 0.517 | 0.44 | 0.331 | 0.326 | 0.322 | 0.283 | 0.261 | 0.741 | 0.691 | 0.832 | 0.807 | 0.725 | 0.376
NCI-H1993 | 0.411 | 0.51 | 0.568 | 0.536 | 0.617 | 0.622 | 0.645 | 0.671 | 0.468 | 0.494 | 0.364 | 0.501 | 0.511 | 0.513 | 0.954 | – | 1.12 | 1.05 | 0.917 | 0.505
HARA | 0.513 | 0.54 | 0.544 | 0.269 | 0.253 | 0.252 | 0.253 | 0.252 | 0.228 | 0.982 | 0.567 | 0.746 | 0.368 | 0.551 | 1.18 | 1.33 | 1.16 | 1.23 | 0.537 | 0.525
NCI-H23 | 0.668 | 0.782 | 0.773 | 0.564 | 0.698 | 0.55 | 0.585 | 0.804 | 0.516 | 0.38 | 0.343 | 0.387 | 0.368 | 0.22 | 0.722 | 0.862 | 0.776 | 0.863 | 0.489 | 0.757
BEN | 0.281 | 0.247 | 0.316 | 0.21 | 0.928 | 0.753 | 0.715 | 0.942 | 0.753 | 0.798 | 1.13 | 1.06 | 1.16 | 0.944 | 0.0374 | 0.0689 | 0.0632 | 0.23 | 0.108 | 0.255
COR-L23 | 0.449 | 0.39 | 0.455 | 0.375 | 0.198 | 0.21 | 0.199 | 0.203 | 0.203 | 0.748 | 0.612 | 0.5 | 0.731 | 0.372 | 0.895 | 1.06 | 1.04 | 1.47 | 0.525 | 0.43
